Values joined by “and” are separate entries in the source; they are usually repeats but may differ in a detail not shown here. Equal entries are not always repeated.
How the values were obtained:
[1] = tested on: AMPA receptor ([^3 H]AMPA binding, crude membranes of rat forebrain); experiment: [^3 H]-AMPA displacement, EAA receptor binding; settings: 10 μM test compound, [^3 H]AMPA 5 nM, 100 mM KSCN
Method: (§1) Referring to Table IV, there are shown the results obtained in testing a representative number of these compounds. In Table IV, the activity of the compounds for EAA receptor binding is indicated. Compounds were evaluated for their ability to displace [^3 H]-CGS191755, [^3 H]-glycine, [^3 H]-AMPA and [^3 H]-kainate at a screening concentration of 10 μM.
(§2) Binding assays, except for glycine binding, were performed in accordance with the methods described in Schoepp et al., J. Pharmacology and Exp. Therap., Vol. 255, No. 3, pp. 1301-1308 (1990). For all binding assays, male Sprague-Dawley rats (150-175 g) were used. Displacement of the specific binding of ^3 H]CGS19755 (10 nM) to Triton-X-treated synaptosomal membranes of rat forebrain was used to determine NMDA receptor affinity. Nonspecific binding was determined using 10 μM L-glutamate. Samples were incubated in an ice bath for 30 minutes, and bound ligand was separated from the free ligand by rapid filtration through Whatman GF/B glass fiber filters.
The binding of [^3 H]AMPA (5 nM) was conducted with crude membranes of rat forebrain in the presence of 100 mM KSCN, as described by Nielsen et al., "Studies on Receptor-Active Conformations of Excitatory Amino Acid Agonists and Antagonists," Eur. J. Med. Chem. Chim. Ther. 21:433-437 (1986). Nonspecific binding was determined with 10 μM nonlabeled AMPA.

[2] = molecular target: T1, Strychnine-Insensitive [^3 H]Glycine Binding Sites, washed membranes of rat brain cortex (Rattus norvegicus, UniProt P35439); experiment: biochemical; settings: for inhibition at 10 µM: 1 h, read-out: [^3 H]-Glycine Binding % DSPL10 @ 10 μM, 10 μM test compound, 60 minutes on ice; for [^3 H]-Glycine Binding % DSPL10 @ 10 μM: 10 μM test compound, 60 minutes on ice
T1 construct: washed membranes of rat brain cortex; from tissue; host or cells: brain cortex membranes, male Sprague-Dawley rats (150-175 g)
Method: as §1, §2
The compounds were examined for their ability to displace [^3 H]-glycine from washed membranes of rat brain cortex according to the methods of Shinohara et al., "Ontogeny of Strychnine-Insensitive [^3 H]Glycine Binding Sites in Rat Forebrain", Neurosci. Lett. 105 (1990) 307-311. In each assay, […] [^3 H]-glycine and 25 μg tissue were incubated with test compounds (10 μM in a total volume of 0.5 ml for 60 minutes on ice; incubations were terminated by centrifugation. Non-specific binding was defined as that remaining in the presence of 10 μM D-serine.

[3] = tested on: kainate (KA) receptor ([^3 H]Kainate binding, washed synaptosomal membranes from the rat forebrain); experiment: [^3 H]-kainate displacement, EAA receptor binding; settings: 10 μM test compound, [^3 H]Kainate 5 nM, pH 7.4, 30 min
Method: as §1, §2
[^3 H]Kainate binding was performed using washed synaptosomal membranes from the rat forebrain, prepared as described by Simon et al., "Binding of [^3 H]Kainic Acid, an Analogue of L-Glutamate, to Brain Membranes," J. Neurochem. 26:141-147 (1976). [^3 H]Kainate (5 nM) was added to 50 mM Tris-HCl buffer (pH 7.4 at 4°) containing 200-300 μg/ml of tissue protein. Samples were incubated for 30 minutes in an ice bath and then rapidly filtered using a Brandel cell harvester and Whatman GF/C filters. Filters were washed twice with 3 ml of cold buffer. Nonspecific binding was determined using 100 μM nonlabeled kainate.

Structure (SMILES) | AMPA % DSPL @ 10 μM [1] [%] | inhibition at 10 µM [2] [%] | KA % DSPL @ 10 μM [3] [%] | AMPA % DSPL @ 10 μM ([1]; 10 µM) | [^3 H]-Glycine Binding % DSPL10 @ 10 μM ([2]; 60 min, 10 µM) | KA % DSPL @ 10 μM ([3]; 10 µM) | [^3 H]-Glycine Binding % DSPL10 @ 10 μM [2] [%]
Cc1nnc2cnc3cc(Cl)c(Cl)cc3n12 [Compound 1, 1-methyl-7,8-dichloro-1,2,4-triazolo[4,3-a]quinoxaline] | 35.1 | 0 | 16.8 |  |  |  | 
Cc1nnc2c(=O)[nH]c3cc(Cl)c(Cl)cc3n12 [Compound 2, 1-methyl-7,8-dichloro-1,2,4-triazolo[4,3-a]quinoxalin-4(5H)-one] |  | 18 | 28.0 | 78.3% and 75.1% |  |  | 
CCc1nnc2cnc3cc(Cl)c(Cl)cc3n12 [Compound 3, 1-ethyl-7,8-dichloro-1,2,4-triazolo[4,3-a]quinoxaline] | 7.9 | 63 | 12.0 |  |  |  | 
CCc1nnc2c(=O)[nH]c3cc(Cl)c(Cl)cc3n12 [Compound 4, 1-ethyl-7,8-dichloro-1,2,4-triazolo[4,3-a]quinoxalin-4(5H)-one] |  | 53 | 21.4 | 55.1% and 52.3% |  |  | 
CCCc1nnc2cnc3cc(Cl)c(Cl)cc3n12 [Compound 5, 1-n-propyl-7,8-dichloro-1,2,4-triazolo[4,3-a]quinoxaline] | -1.6 | 2 | 3.9 |  |  |  | 
CCCc1nnc2c(=O)[nH]c3cc(Cl)c(Cl)cc3n12 [Compound 6, 1-n-propyl-7,8-dichloro-1,2,4-triazolo[4,3-a]quinoxalin-4(5H)-one] |  | 75 | 32.1 | 77.1% and 85.6% |  |  | 
CCCCc1nnc2cnc3cc(Cl)c(Cl)cc3n12 [Compound 7, 1-n-butyl-7,8-dichloro-1,2,4-triazolo[4,3-a]quinoxaline] | 4.2 | -2 | -6.4 |  |  |  | 
CCCCc1nnc2c(=O)[nH]c3cc(Cl)c(Cl)cc3n12 [Compound 8, 1-n-butyl-7,8-dichloro-1,2,4-triazolo[4,3-a]quinoxalin-4(5H)-one] |  | 60 | 33.8 |  |  |  | 
FC(F)(F)c1nnc2cnc3cc(Cl)c(Cl)cc3n12 [Compound 9, 1-trifluoromethyl-7,8-dichloro-1,2,4-triazolo[4,3-a]quinoxaline] |  | -6 |  |  |  |  | 
O=c1[nH]c2cc(Cl)c(Cl)cc2n2c(C(F)(F)F)nnc12 [Compound 10, 1-trifluoromethyl-7,8-dichloro-1,2,4-triazolo [4,3-a]quinoxalin-4(5H)-one] |  | 40 | 12.5 | 56.8% and 38.5% |  |  | 
Clc1cc2ncc3nnc(-c4ccccc4)n3c2cc1Cl [Compound 11, 1-phenyl-7,8-dichloro-1,2,4-triazolo[4,3-a]quinoxaline] | 1.7 | -3 | 9.1 |  |  |  | 
O=c1[nH]c2cc(Cl)c(Cl)cc2n2c(-c3ccccc3)nnc12 [Compound 12, 1-Phenyl-7,8-dichloro-1,2,4-triazolo[4,3-a]quinoxalin-4(5H)-one] | 3.6 | -1 | 8.2 |  |  |  | 
O=c1[nH]c2cc(Cl)c(Cl)cc2n2cnnc12 [Compound 12a, 7,8-dichloro-1,2,4-triazolo[4,3-a]quinoxalin-4(5H)-one] |  |  |  | 64.3% and 67.9% | 79% and 42% |  | 
O=c1[nH]c2cc(Cl)cc(Cl)c2n2cnnc12 [Compound 14a, 7,9-dichloro-1,2,4-triazolo[4,3a]quinoxalin-4(5H)-one] |  | 87 |  |  |  |  | 
Brc1ccc2ncc3nncn3c2c1 [Compound 15, 8-bromo-1,2,4-triazolo[4,3-a]quinoxaline] | 1.6 | -3 | -4.3 |  |  |  | 
O=[N+]([O-])c1ccc2c(c1)ncc1nncn12 [Compound 16, 7-nitro-1,2,4-triazolo[4,3-a]quinoxaline] | 1.7 | -5 | 3.0 |  |  |  | 

Structure (SMILES) | AMPA % DSPL @ 10 μM [1] [%] | inhibition at 10 µM [2] [%] | KA % DSPL @ 10 μM [3] [%] | AMPA % DSPL @ 10 μM ([1]; 10 µM) | [^3 H]-Glycine Binding % DSPL10 @ 10 μM ([2]; 60 min, 10 µM) | KA % DSPL @ 10 μM ([3]; 10 µM) | [^3 H]-Glycine Binding % DSPL10 @ 10 μM [2] [%]
O=c1[nH]c2cc([N+](=O)[O-])ccc2n2cnnc12 [Compound 17, 7-nitro-1,2,4-triazolo[4,3-a]quinoxalin-4(5H)-one] |  | 52 | 34.7 | 85.1% and 77.4% |  |  | 
O=c1[nH]c2cc([N+](=O)[O-])c([N+](=O)[O-])cc2n2cnnc12 [Compound 18, 7,8-dinitro-1,2,4-triazolo[4,3-a]quinoxalin-4(5H)-one] |  | 50 | 15.6 | 77.4% and 55.0% |  |  | 
O=c1[nH]c2ccc(Br)cc2n2nnnc12 [Compound 21, 8-bromotetrazolo[1,5-a]quinoxalin-4(5H)-one] | 10.2 | 6 | 30.8 |  |  |  | 
O=c1[nH]c2ccc([N+](=O)[O-])cc2n2nnnc12 [Compound 22, 8-nitrotetrazolo[1,5-a]quinoxalin-4(5H)-one] | 0.7 | 0 | 0.5 |  |  |  | 
O=[N+]([O-])c1ccc2c(c1)ncc1nnnn12 [Compound 23, 7-nitrotetrazolo[1,5-a]quinoxaline] | 1.0 | -1 | -3.8 |  |  |  | 
O=c1[nH]c2cc([N+](=O)[O-])ccc2n2nnnc12 [Compound 24, 7-nitrotetrazolo[1,5-a]quinoxalin-4(5H)-one] | 38.4 | 2 | 2.8 |  |  |  | 
O=c1[nH]c2cc([N+](=O)[O-])c([N+](=O)[O-])cc2n2nnnc12 [Compound 25, 7,8-dinitrotetrazolo[1,5-a]quinoxalin-4(5H)-one] |  | 3 |  |  |  | 0.4% and -2.1% | 
[N-]=[N+]=Nc1cc2c(cc1F)ncc1nnnn12 [Compound 26, 7-fluoro-8-azidotetrazoloquinoxaline] | -1.8 |  | 5.5 |  |  |  | -2
[N-]=[N+]=Nc1cc2c(cc1F)[nH]c(=O)c1nnnn12 [Compound 27, 7-fluoro-8-azidotetrazoloquinoxalin-4(5H)-one] | 1.7 | 5 | 2.5 |  |  |  | 
O=c1[nH]c2cc(Cl)c(Cl)cc2n2nnnc12 [Compound 27a, 7,8-dichlorotetrazolo[1,5-a]quinoxalin-4(5H)-one] | 38 | 37 |  |  |  |  | 
O=c1[nH]c2ccc(Br)cc2c2ccnn12 [Compound 28, 9-bromopyrazolo[1,5-c]quinazolin-5(6H)-one] | 20.7 | 4 | 2.6 |  |  |  | 
O=c1[nH]c2ccc(Cl)cc2c2ccnn12 [Compound 29, 9-Chloropyrazolo[1,5-c]quinazolin 5(6H)-one] | 23.1 | 5 | 0.3 |  |  |  | 
O=c1[nH]c2c(Cl)cccc2c2ccnn12 [Compound 30, 7-Chloropyrazolo[1,5-c]quinazolin-5(6H)-one] | 14.8 | 0 | -0.4 |  |  |  | 
O=c1[nH]c2cc(Cl)ccc2c2ccnn12 [Compound 31, 8-chloropyrazolo[1,5-c]quinazolin-5(6H)-one] | 46 | 42 | 11.5 |  |  |  | 
O=c1[nH]c2cc(Cl)c(Cl)cc2c2ccnn12 [Compound 32, 8,9-dichloropyrazolo[1,5-c]quinazolin-5(6H)-one] |  |  | -0.1 | 4.9% and 9.3% |  |  | 

Source: patent US5196421A, “Excitatory amino acid receptor antagonists in methods for the use thereof” (priority 1992, dated 1993)
